{
  "source": "patent US20250263404A1",
  "about": "“AMINOPYRIDINES AS ACTIVATORS OF PI3 KINASE” (UCL Business Ltd, priority 2021, published 2025)",
  "key": {"[1]": {"system": "exposed rat sciatic nerves", "assay": "pAKT induction in exposed rat sciatic nerves", "type": "in vivo", "details": "direct injection or bathing, 5 μM", "description": "Stimulated by these observations, we next tested 1938 in the sciatic nerve crush model in the rat, an in vivo model of peripheral nerve injury and regeneration. […] Immediately after the nerve crush (FIG. 5e, i-ii), 1938 was delivered via a single intraneural injection into the proximal crush site (FIG. 5e, iii) and via a minipump implanted adjacent to the nerve (FIG. 5e, iv), loaded with 1938 solution, for continuous delivery for the duration of the experiment. Analyses were conducted 3 weeks after injury.\nTest experiment to assess if 1938 could induce pAkt generation in exposed rat sciatic nerves, adult male Sprague Dawley rats (>250 g; n=2) were anaesthetised using isoflurane, the left leg sciatic nerve was exposed and injected with 2 μl vehicle (sterile dH2O) or 1938 (5 μM in sterile dH2O). Meanwhile the sciatic nerve of the right leg was exposed and bathed in 250 μl of vehicle (sterile dH2O) or 1938 (5 μM in sterile dH2O). Each animal received one vehicle and one compound treatment. The treatments were left on for 30 min prior to washing the bathed nerves with sterile PBS and culling via sodium pentobarbital injection according to local regulations, the animal by schedule 1. Nerves were then harvested, washed in fresh 4° C. PBS and stored in a fresh vial before snap freezing in liquid nitrogen. […]"}, "PI3Kα-WT MEFs": {"system": "PI3Kα-WT MEFs", "assay": "Cell cycle progression by EdU incorporation in MEFs", "type": "cell-based, mouse", "description": "Click-IT EdU strategy was used according to manufacturer instructions (Sigma-Aldrich #BCK-FC488-50). Briefly, MEFs were seeded at 50,000 cells per well in 6-well plates in DMEM supplemented with 10% FBS and 1% P/S, and allowed to attach overnight. The next day, cells were serum-starved for 5 h prior to compound addition in fresh serum-free DMEM. At different time points, cells were pulsed for 3 h with 10 μM EdU, followed by collection by trypsinization and fixation with 3.7% FA in PBS for 15 min in the dark, washed in 3% BSA and permeabilized in 1× saponin-based permeabilization buffer for 20 min in the dark. EdU was then detected using the FAM-azide assay cocktail for 30 min in the dark. Cells were washed twice in 1× saponin-based permeabilization buffer followed by analysed with flow cytometer (Novocyte Advanteon flow cytometer, Agilent)."}, "[2]": {"system": "adult rat dorsal root ganglion (DRG) cultures", "assay": "Neurite outgrowth in dissociated adult rat DRG cultures", "type": "cell-based", "details": "72 h", "from_the_text": "Given that there are currently no small molecule clinical-stage treatments routinely used to stimulate neuronal regeneration such as for injury to peripheral nerves, the spinal cord or optic nerves, we explored the potential of PI3Kα activation in this context.\nDorsal root ganglion (DRG) neurons were isolated from adult male (>250 g) Wistar rats as described, with DRGs from each rat cultured separately (Rayner, M. L. D. et al. Anatomical record 301, 1628-1637 (2018)). Following culling via schedule 1 (rising concentration of CO2), the spinal column was removed and stored in PBS on ice. Cord tissue was removed to expose the DRG and roots in the intervertebral foramen and the DRGS removed with forceps and scalpel under a dissecting microscope (Olympus SZ40). DRGs were manually cleaned by removal of roots, capsule and capillaries with forceps and then placed in DMEM supplemented with P/S. DRGs were treated with 0.125% collagenase type IV solution at 37° C. for 90 min, and then mechanically dissociated by trituration using a 1 ml pipette. The collagenase solution was removed by 2 rounds of centrifugation in complete DMEM (DMEM with 1% P/S and 10% FBS) at 400×g for 5 min, followed by resuspension of the DRG cell pellet in complete DMEM supplemented with 0.01 mM cytosine arabinoside. DRGs were plated in 75-cm^2 flasks coated with 0.1 mg/ml poly-D-lysine and incubated at 37° C., 5% CO2. […]"}},
  "data": [
    {"smiles": "CCN1CCN(c2ccc(Nc3cc(Nc4cccc5c4N(C(C)=O)CC5)ccn3)cc2)CC1", "note": "[Example 1938]", "values": [
      {"measurement": "pAKT in sciatic nerve", "setting": "[1]", "value": "induction of pAKT"},
      {"measurement": "cell cycle progression (EdU incorporation)", "setting": "PI3Kα-WT MEFs", "value": "induced cell cycle progression"},
      {"measurement": "neurite outgrowth", "setting": "[2]; dose-dependent", "value": "significantly increased neurite outgrowth"},
      {"measurement": "total length of neurites", "setting": "[2]; higher 1938 concentrations", "value": "doubling the total length of neurites"}
    ]}
  ]
}
